# Experimental data reported in patent publication US20090226427A1, “NOVEL PHARMACEUTICAL COMPOSITIONS FOR MODULATING ANGIOGENESIS” (priority 1999, published 2009).
# Experiments:
# endothelial cells = test: sandwich Matrigel model of endothelial tube formation; format: cell-based; details: non-transfected cells
# Description: Indeed, while endothelial cells culture leads to pavimentous organization when plated on dishes (FIG. 1A), endothelial cells progressively form tubes when cultured within gels of collagen, fibrin or Matrigel®. Accordingly, in the “3-D model”, endothelial cells are mixed to the matrix before gelification and tube-like structures are obtained after 48-72 hours (FIG. 1B); this model, however, reduces the efficiency of transfection. In the “sandwich model”, cells are first cultured to confluence on a first layer of matrix, and are then covered by a second matrix layer; cells are easily transfected in the interval preceding the addition of the upper layer. The latter technique allows the formation of endothelial tubes in 3-6 hours; the tube structures are mature 12 hours after induction (FIG. 1C) and then start to regress.
# Of note, when endothelial cells were transfected with an irrelevant construct (β-galactosidase-encoding), no change in the rate and extent of tube formation was observed.
# CMECs = test: angiogenesis assay on Matrigel, CMECs; format: cell-based, Mouse
# Description: (§1) Tube formation was observed using an inverted phase-contrast microscope (Zeiss Axiovert 25), and images were captured with a videographic system (Pixera Pro). The tube formation index was determined by measuring the length of tubes in random fields from each well using the Image J program. Statistical analyses were made using the Student t test or one-way ANOVA where appropriate.
# AoECs = test: aortic ring culture in Matrigel, AoEC network organization; format: cell-based, rat
# Description: as §1, with “Cultures of AoECs and CoMECs organized in a network were then challenged at day 5 by incubation under serum-free conditions for 24 to 48 hours with or without some of the drugs mentioned above. […] Tube” for “Tube”
# HUVECs = test: angiogenesis assay on Matrigel, HUVECs; format: cell-based, human; details: HUVECs; 0.1 μmol/L
# Description: as §1
# Transfection and peptide loading was performed by reversible permeabilization: HUVECs were transfected with the hsp90 cDNA (a gift from Dr W. C. Sessa, Yale University, New Haven, Conn.) using Lipofectamine (Invitrogen) according to the manufacturer's protocol; an irrelevant plasmid encoding β-galactosidase was used as a control to obtain identical amounts of transfected DNA in each condition. HUVECs were also reversibly permeabilized, as previously reported (Feron et al. J Biol. Chem. 1998; 273:30249-30254), to introduce synthetic peptides derived from the caveolin scaffolding domain (CSD).
# [1] = system: caveolin/eNOS interaction; test: caveolin/eNOS co-immunoprecipitation, AoECs; format: cell-based, rat
# Description: (§3) In some experiments, ECs were recovered from Matrigel after a 5-minute incubation with 50 mg/mL collagenase under constant agitation, followed by two sequences of washing/centrifugation (2000 rpm for 5 minutes at 4° C.).
# caveolin [2] = test: caveolin immunoblot, CMECs; format: cell-based, Mouse; details: 3-hour exposure of CMECs
# Source text: (§2) Therefore, the effects of statin exposure on the absolute amounts of caveolin in AoECs and CMECs was examined.
# caveolin [3] = test: caveolin immunoblot, AoECs; format: cell-based, rat; details: n=3, P<0.01
# Source text: as §2
# caveolin [4] = test: caveolin immunoblot, AECs; format: cell-based, Bovine; details: isolated aortic ECs after statin treatment
# Source text: as §2
# caveolin [5] = test: caveolin immunoblot, CoMECs; format: cell-based, human; details: microvascular outgrowing CoMECs
# Source text: as §2
# phospho-Ser1177-eNOS [6] = test: phospho-Ser1177 eNOS immunoblot, CMECs; format: cell-based, Mouse
# Source text: The modulation of eNOS phosphorylation by statins was examined using anti-phospho-Ser1177 eNOS antibodies.
# phospho-eNOS = phospho-eNOS immunoblot and hsp90/eNOS interaction, AoECs; format: cell-based, rat
# Akt/hsp90 interaction = test: Akt/hsp90 co-immunoprecipitation, statin-exposed HUVECs; format: cell-based, human; details: 5-minute exposure
# hsp90 = hsp90 tyrosine phosphorylation, HUVECs; format: cell-based, human
# [7] = system: caveolin/eNOS interaction; details: CMECs; P>0.1, n=3
# Description: as §3
# phospho-Ser473-Akt = phospho-Ser473-Akt immunoblot, statin-exposed HUVECs; details: 5-minute incubation
# phospho-Ser1177-eNOS [8] = test: phospho-Ser1177-eNOS immunoblot, statin-exposed HUVECs
# eNOS/hsp90 interaction = test: eNOS/hsp90 co-immunoprecipitation, statin-exposed HUVECs; details: 5-minute exposure
# [9] = system: phospho-Akt/eNOS interaction; test: eNOS/phospho-Akt co-immunoprecipitation, statin-exposed HUVECs
# [10] = system: TLT cells (hepatocarcioma); test: TLT tumor mouse model, tumor volume; format: in vivo, mice; details: immunological detection of HA tag in tumor endothelial cells
# Source text: Hepatocarcinoma cells are able to grow as a tumor after injection in the leg of mice is dependent on the ability of endothelial cells to develop new vessels to “feed” the tumor. This vessel development depends on the capacity of endothelial cells to produce NO through eNOS activation in these cells, itself regulated by the post-translational modulators it was previously identified in the in vitro experiments, e.g. caveolin-1.
# Tumor mouse model: 30-40 g male NMRI mice received an IP injection of TLT cells (hepatocarcioma). Ascite cells were recovered in physiological serum and IM-injected in the posterior left leg of ketamine/xylazin anesthetized mice. Tumors grew for 9-12 days to reach 8±1 mm of diameter, the original diameter for treatment (caveolin plasmid injection) at day 0.
# The effect of injection of plasmids encoding caveolin-1 has been evaluated on the volume of the growing tumor after tumor implantation in the leg (FIG. 2). Caveolin-encoding plasmids were injected either intravenously or directly in the tumor. The working hypothesis was that heterologous over-expression of caveolin-1 in endothelial cells will inhibit eNOS activation in endothelial cells, with a subsequent inhibition of angiogenesis that will result in a decrease in tumor growth.
molecule,measurement,setting,value
CC(C)c1c(C(=O)Nc2ccccc2)c(-c2ccccc2)c(-c2ccc(F)cc2)n1CC[C@@H](O)C[C@@H](O)CC(=O)O [atorvastatin],endothelial tube formation,endothelial cells,accelerated the endothelial tube formation
same,time of maximal proangiogenic effect,CMECs; CMECs on Matrigel,3 h
same,formation of capillary-like structures on Matrigel,"CMECs; freshly isolated CMECs, atorvastatin 1 _mol/L",rapidly led to the formation of capillary-like structures
same,serum-driven formation of the AoEC network,AoECs; atorvastatin present during 5 to 7 days of cell growth,did not significantly influence
same,network organization after serum deprivation,"AoECs; statin pretreatment, then deprived of serum for 48 hours",dramatically stabilized the network organization
same,tube formation,HUVECs,stimulated tube formation
same,eNOS found in the caveolin immunoprecipitate,"[1]; AoECs exposed to atorvastatin for 5 days, n=6, 44+/−8% without statin",8+/−5%
same,change in amount of caveolin immunoprecipitated by eNOS antibodies,"[1]; atorvastatin-treated AoECs, P<0.01, n=3",−73+/−7%
same,abundance of caveolin,caveolin [2],did not alter
same,reduction of the AoEC pool of caveolin,caveolin [3],26+/−5%
same,caveolin abundance,caveolin [4],significant decrease in caveolin abundance
same,caveolin expression,caveolin [5],did not any alteration in caveolin expression
same,eNOS phosphorylation (Ser1177),phospho-Ser1177-eNOS [6],did produce eNOS phosphorylation
same,phosphorylation of eNOS,"phospho-eNOS; AoECs, 5-day treatment then 48-hour period in the absence of atorvastatin",no effect
same,amounts of phospho-eNOS and hsp90/eNOS interaction,phospho-eNOS; uninterrupted exposure of outgrowing AoECs (or isolated AECs),significant increase
same,interaction of hsp90 with Akt,Akt/hsp90 interaction,sufficient to promote the interaction of hsp90 with both Akt and eNOS
same,tyrosine phosphorylation of hsp90,hsp90,rapidly and dose-dependently induced
same,amount of caveolin immunoprecipitated by eNOS antibodies,[7],not significantly altered
same,Akt phosphorylation,phospho-Ser473-Akt,sufficient to induce Akt phosphorylation
same,eNOS phosphorylation,phospho-Ser1177-eNOS [8]; 5-minute incubation,did not promote eNOS phosphorylation
same,eNOS phosphorylation,phospho-Ser1177-eNOS [8]; 30 minutes exposure,produced eNOS phosphorylation
same,interaction of hsp90 with eNOS,eNOS/hsp90 interaction,sufficient to promote the interaction of hsp90 with both Akt and eNOS
same,time to maximum of the Akt-hsp90-eNOS mutual interaction,[9],1 to 2 h
same,association of Akt with eNOS,[9]; 5-minute exposure,insufficient to promote the association of Akt with eNOS
"recombinant (HA-tagged-) caveolin: recombinant caveolin-1 tagged with hemagglutinin antigen, expressed from the injected plasmid (protein, UniProt Q03135 2-178, looked up, HA tag, recombinant caveolin-1 tagged with hemagglutinin antigen, expressed from the injected plasmid) Caveolin-1: SGGKYVDSEGHLYTVPIREQGNIYKPNNKAMADELSEKQVYDAHTKEIDLVNRDPKHLNDDVVKIDFEDVIAEPEGTHSFDGIWKASFTTFTVTKYWFYRLLSALFGIPMALIWGIYFAILSFLHIWAVVPCIKSFLIEIQCISRVYSIYVHTVCDPLFEAVGKIFSNVRINLQKEI",extent of recombinant caveolin expression in relation to tumor volume,[10],inversely correlated to the tumor volume
